Source: patent publication US10590105B2, “1,3-dihydroxy-phenyl derivatives useful as immunomodulators” (BRISTOL-MYERS SQUIBB COMPANY, priority 2016, dated 2020)
Read-outs that look alike come from different tables or passages of the source.

Biological target: PD-1/PD-L1 interaction (PD-1-Ig / PD-L1-His) (Homo sapiens (Human), UniProt Q9NZQ7)
Experiment: PD-1/PD-L1 Homogenous Time-Resolved Fluorescence (HTRF) binding assay
Details: PD-1/PD-L1 HTRF binding assay, read-out: Range or IC50
Excerpt: The ability of the compounds of formula (I) to bind to PD-L1 was investigated using a PD-1/PD-L1 Homogenous Time-Resolved Fluorescence (HTRF) binding assay.
Homogenous Time-Resolved Fluorescence (HTRF) Binding Assay.
The interaction of PD-1 and PD-L1 can be assessed using soluble, purified preparations of the extracellular domains of the two proteins. The PD-1 and PD-L1 protein extracellular domains were expressed as fusion proteins with detection tags, for PD-1, the tag was the Fc portion of Immunoglobulin (PD-1-Ig) and for PD-L1 it was the 6 histidine motif (PD-L1-His). All binding studies were performed in an HTRF assay buffer consisting of dPBS supplemented with 0.1% […] bovine serum albumin and 0.05% (v/v) Tween-20. For the h/PD-L1-His binding assay, inhibitors were pre-incubated with PD-L1-His (10 nM final) for 15 m in 4 μl of assay buffer, followed by addition of PD-1-Ig (20 nM final) in 1 μl of assay buffer and further incubation for 15 m. HTRF detection was achieved using europium crypate-labeled anti-Ig (1 nM final) and allophycocyanin (APC) labeled anti-His (20 nM final). Antibodies were diluted in HTRF detection buffer and 5 μl was dispensed on top of the binding reaction. The reaction mixture was allowed to equilibrate for 30 minutes and the resulting signal (665 nm/620 nm ratio) was obtained using an EnVision fluorometer. Additional binding assays were established between the human proteins PD-1-Ig/PD-L2-His (20 & 5 nM, respectively) and CD80-His/PD-L1-Ig (100 & 10 nM, respectively).
Recombinant Proteins. Human PD-1 (25-167) with a C-terminal human Fc domain of immunoglobulin G (Ig) epitope tag [hPD-1 (25-167)-3S-IG] and human PD-L1 (18-239) with a C-terminal His epitope tag [hPD-L1(18-239)-TVMV-His] were expressed in HEK293T cells and purified sequentially by ProteinA affinity chromatography and size exclusion chromatography. Human PD-L2-His and CD80-His was obtained through commercial sources.
Ranges are as follows: A=0.001 to 0.010 micromolar; B=0.011 to 0.150 micromolar; C=0.151 to 10 micromolar.

Sequence of PD-1/PD-L1 interaction (PD-1-Ig / PD-L1-His) (Q9NZQ7 other isoform, or with tags, fused parts or gaps): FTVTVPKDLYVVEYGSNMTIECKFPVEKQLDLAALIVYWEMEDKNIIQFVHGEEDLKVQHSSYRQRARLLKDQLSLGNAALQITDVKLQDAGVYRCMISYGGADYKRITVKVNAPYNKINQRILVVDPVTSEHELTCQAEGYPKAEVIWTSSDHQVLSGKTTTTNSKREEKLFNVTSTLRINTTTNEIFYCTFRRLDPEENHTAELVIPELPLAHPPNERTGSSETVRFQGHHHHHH

IC50 (value given as range class) | IC50 (value given as number) | Compound
151 to 10000 nM |  | 2-((5-chloro-2-((5-cyanopyridin-3-yl)methoxy)-4-((3-(1-(2-(dimethylamino)ethyl)-1H-benzo[d]imidazol-6-yl)-2-methylbenzyl)oxy)benzyl)amino)-2-methylpropanoic acid and 2-((5-chloro-2-((5-cyanopyridin-3-yl)methoxy)-4-((3-(1-(2-(dimethylamino)ethyl)-1H-benzo[d]imidazol-5-yl)-2-methylbenzyl)oxy)benzyl)amino)-2-methylpropanoic acid [Example 1026]
151 to 10000 nM |  | Cc1c(COc2cc(OCc3cncc(C#N)c3)c(CN[C@](C)(CO)C(=O)O)cc2Cl)cccc1-c1ccc2ncccc2c1 [Example 1005, (R)-2-((5-chloro-2-((5-cyanopyridin-3-yl)methoxy)-4-((2-methyl-3-(quinolin-6-yl)benzyl)oxy)benzyl)amino)-3-hydroxy-2-methylpropanoic acid]
11 to 150 nM |  | Cc1c(OCCCN2CC[C@@H](O)C2)cccc1-c1ccnc(COc2cc(OCc3cncc(C#N)c3)c(CN3CCCC[C@H]3C(=O)O)cc2Cl)c1C [Example 2011, (S)-1-(5-chloro-2-((5-cyanopyridin-3-yl)methoxy)-4-((4-(3-(3-((R)-3-hydroxypyrrolidin-1-yl)propoxy)-2-methylphenyl)-3-methylpyridin-2-yl)methoxy)benzyl)piperidine-2-carboxylic acid]
1 to 10 nM |  | Cc1c(COc2cc(OCc3cncc(C#N)c3)c(CNC(C)(C)C(=O)O)cc2Cl)cccc1-c1ccc2ncoc2c1 [Example 1016, 2-((4-((3-(benzo[d]oxazol-6-yl)-2-methylbenzyl)oxy)-5-chloro-2-((5-cyanopyridin-3-yl)methoxy)benzyl)amino)-2-methylpropanoic acid]
1 to 10 nM |  | Cc1c(COc2cc(OCc3cncc(C#N)c3)c(CN3CCCC[C@H]3C(=O)O)cc2Cl)cccc1-c1ccc2oc(CCN3CC[C@@H](O)C3)nc2c1 [Example 1029, (S)-1-(5-chloro-2-((5-cyanopyridin-3-yl)methoxy)-4-((3-(2-(2-((R)-3-hydroxypyrrolidin-1-yl)ethyl)benzo[d]oxazol-5-yl)-2-methylbenzyl)oxy)benzyl)piperidine-2-carboxylic acid]
1 to 10 nM |  | Cc1c(COc2cc(OCc3cncc(C#N)c3)c(CN[C@](C)(CO)C(=O)O)cc2Cl)cccc1-c1ccc2ocnc2c1 [Example 1012, (R)-2-((4-((3-(benzo[d]oxazol-5-yl)-2-methylbenzyl)oxy)-5-chloro-2-((5-cyanopyridin-3-yl)methoxy)benzyl)amino)-3-hydroxy-2-methylpropanoic acid]
11 to 150 nM |  | Cc1c(COc2cc(OCc3cncc(C#N)c3)c(CNC(C)(C)C(=O)O)cc2Cl)cccc1-c1ccc2ccoc2c1 [Example 1018, 2-((4-((3-(benzofuran-6-yl)-2-methylbenzyl)oxy)-5-chloro-2-((5-cyanopyridin-3-yl)methoxy)benzyl)amino)-2-methylpropanoic acid]
1 to 10 nM |  | Cc1c(COc2cc(OCc3cncc(C#N)c3)c(CN3CCC[C@@]3(C)C(=O)O)cc2Cl)cccc1-c1ccc2ccoc2c1 [Example 1020, (S)-1-(4-((3-(benzofuran-6-yl)-2-methylbenzyl)oxy)-5-chloro-2-((5-cyanopyridin-3-yl)methoxy)benzyl)-2-methylpyrrolidine-2-carboxylic acid]
151 to 10000 nM |  | Cc1nn(-c2cccc(COc3cc(OCc4cncc(C#N)c4)c(CNCCN4CC[C@@H](O)C4)cc3Cl)c2C)c(C)c1CNCCN1CC[C@@H](O)C1 [Example 2006, 5-((4-chloro-2-(((2-((R)-3-hydroxypyrrolidin-1-yl)ethyl)amino)methyl)-5-((3-(4-(((2-((R)-3-hydroxypyrrolidin-1-yl)ethyl)amino)methyl)-3,5-dimethyl-1H-pyrazol-1-yl)-2-methylbenzyl)oxy)phenoxy)methyl)nicotinonitrile]
151 to 10000 nM |  | Cc1c(COc2cc(OCc3cncc(C#N)c3)c(CO)cc2Cl)cccc1-c1cccc(OCCCN2CC[C@@H](O)C2)n1 [Example 1031, (R)-5-((4-chloro-2-(hydroxymethyl)-5-((3-(6-(3-(3-hydroxypyrrolidin-1-yl)propoxy)pyridin-2-yl)-2-methylbenzyl)oxy)phenoxy)methyl)nicotinonitrile]
1 to 10 nM |  | Cc1c(OCCCN2CCCCC2)cccc1-c1ccnc(COc2cc(OCc3cncc(C#N)c3)c(CN[C@@](C)(CO)C(=O)O)cc2Cl)c1C [Example 2015, (S)-2-((5-chloro-2-((5-cyanopyridin-3-yl)methoxy)-4-((3-methyl-4-(2-methyl-3-(3-(piperidin-1-yl)propoxy)phenyl)pyridin-2-yl)methoxy)benzyl)amino)-3-hydroxy-2-methylpropanoic acid]
1 to 10 nM |  | Cc1c(COc2cc(OCc3cncc(C#N)c3)c(CNC(C)(CO)CO)cc2Cl)cccc1-c1ccnc(OCCCN2CCCCC2)c1Cl [Example 2001, 5-((4-chloro-5-((3-(3-chloro-2-(3-(piperidin-1-yl)propoxy)pyridin-4-yl)-2-methylbenzyl)oxy)-2-(((1,3-dihydroxy-2-methylpropan-2-yl)amino)methyl)phenoxy)methyl)nicotinonitrile]
1 to 10 nM |  | Cc1c(OCCCN2CC[C@@H](O)C2)cccc1-c1ccnc(COc2cc(OCc3cncc(C#N)c3)c(CN[C@@](C)(CO)C(=O)O)cc2Cl)c1C [Example 2012, (S)-2-((5-chloro-2-((5-cyanopyridin-3-yl)methoxy)-4-((4-(3-(3-((R)-3-hydroxypyrrolidin-1-yl)propoxy)-2-methylphenyl)-3-methylpyridin-2-yl)methoxy)benzyl)amino)-3-hydroxy-2-methylpropanoic acid]
1 to 10 nM |  | CCC(CO)(CO)NCc1cc(Cl)c(OCc2nccc(-c3cccc(OCCCN4CCCCC4)c3C)c2C)cc1OCc1cncc(C#N)c1 [Example 2016, 5-((4-chloro-2-(((1-hydroxy-2-(hydroxymethyl)butan-2-yl)amino)methyl)-5-((3-methyl-4-(2-methyl-3-(3-(piperidin-1-yl)propoxy)phenyl)pyridin-2-yl)methoxy)phenoxy)methyl)nicotinonitrile]
 | 1570 nM | Cc1c(COc2cc(OCc3cncc(C#N)c3)c(CN[C@](C)(CO)C(=O)O)cc2Cl)cccc1-c1cnc2ccc(Br)cc2n1 [Example 1010, (R)-2-((4-((3-(7-bromoquinoxalin-2-yl)-2-methylbenzyl)oxy)-5-chloro-2-((5-cyanopyridin-3-yl)methoxy)benzyl)amino)-3-hydroxy-2-methylpropanoic acid]
151 to 10000 nM |  | Cc1c(COc2cc(OCc3cncc(C#N)c3)c(CN[C@](C)(CO)C(=O)O)cc2Cl)cccc1-c1cc2ccccc2cn1 [Example 1007, (R)-2-((5-chloro-2-((5-cyanopyridin-3-yl)methoxy)-4-((3-(isoquinolin-3-yl)-2-methylbenzyl)oxy)benzyl)amino)-3-hydroxy-2-methylpropanoic acid]
1 to 10 nM |  | Cc1c(COc2cc(OCc3cncc(C#N)c3)c(CN[C@](C)(CO)C(=O)O)cc2Cl)cccc1-c1ccc2ccoc2c1 [Example 1019, (R)-2-((4-((3-(benzofuran-6-yl)-2-methylbenzyl)oxy)-5-chloro-2-((5-cyanopyridin-3-yl)methoxy)benzyl)amino)-3-hydroxy-2-methylpropanoic acid]
